The subject of data set [1] is cyclin D1, cyclin D2. Kind of data set: Immunoblot of cyclin D proteins in purified patient CD138+ myeloma cells. The format is cell-based, human. How it is done: Primary CD138^+ myeloma cell purification. Samples from patients diagnosed by International Myeloma Working Group criteria were included in this study. Bone marrow processing, including red cell lysis using ammonium chloride and CD138^+ plasma cell purification, was performed as described elsewhere (Abraham et al., Blood, 105, 794-803 (2005)). Research BM samples were obtained following informed consent at the time of routine procurement of clinical samples.
(§1) Immunoblotting. Cytosolic extracts were prepared from HMCL or purified patient CD138^+ myeloma cells following exposure to kinetin riboside. Cells were washed with cold PBS, resuspended in cold RIPA buffer (5×10^6 cells/100 μL) containing fresh protease and phosphatase inhibitors (Santa Cruz Biotechnology, Santa Cruz, Calif.) and incubated on ice for 30 minutes with gentle mixing. The supernatant was repossessed following high speed centrifugation, and protein concentrations were determined by the Bradford assay. Immunoblot assays were performed as described elsewhere (Krajewski et al., Anal. Biochem., 236:221-228 (1996)). Briefly, equal amounts of protein were separated by SDS-PAGE and transferred to a PVDF nitrocellulose membrane using a semi-dry apparatus. […]

Data set [2] concerns caspase 9. Kind of data set: Immunoblot of caspase 9 cleavage in HMCL. The format is cell-based, human. Particulars: HMCL and CD138+ patient myeloma cells. How it is done: as §1, with “apparatus. Membranes were blocked using 5% skim milk in Tris buffered saline and probed with monoclonal mouse anti-cyclin D1 (DCS-6, Biosource, Camarillo, Calif.), polyclonal rabbit anti-cyclin D2 (#2924, Cell Signalling Technology), monoclonal mouse anti-cyclin D3 (DCS-22, BioSource), polyclonal rabbit anti-c-Maf (M-153, Santa Cruz), polyclonal rabbit anti-Cleaved Caspase 9 (Asp315) (Cell Signaling Technology), monoclonal mouse anti-β-actin (Cell Signaling Technology) and/or monoclonal anti-a-tubulin (B-7)(Santa Cruz Biotechnology, Santa Cruz, Calif.).” for “apparatus.”
A general note: Immunoblotting shows a protein as a band on a membrane.

The test system of data set [3] is HMCL. Kind of data set: Annexin V / propidium iodide flow cytometry of HMCL. The format is cell-based, human. The method, then: (§2) Flow cytometry. HMCL were treated as indicated and then washed in cold phosphate-buffered saline (PBS) and resuspended in buffer containing AnnexinV-FITC and propidium iodide (BD Biosciences, San Jose, Calif.) for 15 minutes at room temperature. Cells (10^5) were subsequently diluted and analyzed immediately by flow cytometry (FACScan, BD Biosciences, San Jose, Calif.) using CellQuest software. Patient bone marrow specimens were prepared and analyzed in a similar fashion using AnnexinV-FITC and anti-CD138-PE (BD Biosciences, San Jose, Calif.).

Data set [4] relates to CD138− hematopoietic cells. As to the kind of experiment: Unsorted myeloma patient bone marrow, flow cytometry: CD138- non-malignant cells. It counts as cell-based. The method, then: as §2
As mouse embryos that lack any D-cyclins eventually die from hematopoietic failure (Kozar et al., Cell, 118, 477-91 (2004)), the bone marrow might be predicted to be one of the most sensitive non-malignant tissue to be affected by drugs targeting cyclin D expression. Unsorted bone marrow samples from myeloma patients were treated with kinetin riboside to assess the relative cytotoxicity of this drug on malignant versus non-malignant marrow cells. Bone marrow samples were first processed to remove non-nucleated red cells and were then treated for 48 hours with kinetin riboside (5 μM).
(A flow cytometer gives signals particle by particle.)

For data set [5] the following is noted: mouse, in vivo. The source says: Kinetin riboside toxicity in mice. In vivo toxicity studies of synthetic kinetin riboside were initiated in balc/c mice. […] The actual volume of distribution and the half-life of kinetin riboside in vivo are at present unknown and future schedules of administration may require adjustment to account for these.
In data set [6] the test system is My5 tumors. As to the kind of experiment: My5 myeloma xenograft in nude mice. Particulars: for effect on My5 tumors: 85 mg/kg/dose. The format is in vivo. The method, then: FIG. 14. Kinetin riboside induces tumor growth arrest in My5 and 8226 myeloma tumor xenografts. (A) Matched pairs of nude mice bearing My5 tumors were treated intra-peritoneally (i.p.) with vehicle control (□) or with kinetin riboside (▪) at escalating dose-density from 100 mg/kg once daily to 85mg/kg 5×/daily, administered 5 days per week, commencing after mean tumor volume reached 135mm^3. Mean tumor volumes±SEM are shown from the time of xenografting (n=4/group). (B) Nude mice bearing 8226 tumors were treated with vehicle (□) or with kinetin riboside (▪) (n=4/group), commencing at 85 mg/kg QID (i.p. and s.c.) when the mean tumor volume exceeded 135 mm^3.
(§3) Female nude X-linked immune-deficient (BNX) mice purchased from NCI-Frederick were used for in vivo studies. Animals had access to food and water ad libitum and were handled in accordance with animal care and use guidelines. Eight-week-old mice were inoculated with My5 or 8226 (2×10^7) MM cells subcutaneously (s.c.) in the right flank. Kinetin riboside (pre-dissolved in DMSO at 500 mg/mL and stored at −20° C.) was formulated daily by dropwise dissolution to 3.7 mg/mL in pre-warmed (37° C.) 0.9% saline, 1% β2-hydroxypropylcyclodextrin (Sigma) solution and was administered 1×-5× daily at 85 mg/kg/dose. The first dose daily was given intraperitoneally and remaining doses were given s.c. with increasing dosing intervals (30, 60, 120, 180 minutes). Tumor volumes were measured using vernier calipers and calculated with the formula L×W×H×2/3. P-values were calculated by paired t-test (JMP 6.0, SAS; Cary, N.C.).

Data set [7] has as its system 8226 tumors. As to the kind of experiment: 8226 myeloma xenograft in nude mice. It counts as in vivo. The method, then: FIG. 14. Kinetin riboside induces tumor growth arrest in My5 and 8226 myeloma tumor xenografts. (A) Matched pairs of nude mice bearing My5 tumors were treated intra-peritoneally (i.p.) with vehicle control (□) or with kinetin riboside (▪) at escalating dose-density from 100 mg/kg once daily to 85mg/kg 5×/daily, administered 5 days per week, commencing after mean tumor volume reached 135mm^3. Mean tumor volumes±SEM are shown from the time of xenografting (n=4/group). […]
as §3

Data set [8] in a line: Aqueous solubility. It counts as physicochemical.
[9] abbreviates: once daily, up to 100 mg/kg/day.

Where two headings read alike, the source gives them in different places. Where only a bound is given, the exact number is not on record here.

On to `OC[C@H]1O[C@@H](n2cnc3c(NCc4ccco4)ncnc32)[C@H](O)[C@@H]1O` [kinetin riboside, N6-Furfuryladenosine], for which, in data set [1] (10 μM, 16 hours), the “patient samples with suppression of cyclin D1 or D2” value is reported as 4 of 5. For the same compound, the “cyclin D1 and D2 levels in sample E (plasma cell leukemia)” value in data set [1] (patient E) is given as “unaffected”. Moreover, the “time to caspase-9 cleavage” value in data set [2] is ≤ 16 h. Besides, in data set [3], the “time to Annexin-V surface binding and loss of CD138 expression” value was in the range of 24 to 96 h. In addition, in data set [3] (H929, 10 μM), the “response of H929 cells” value is given as “apoptosis”. Besides, the “response of U266 cells” value in data set [3] (U266, 10 μM, 96 hours) was “growth inhibition”. The “toxicity in CD138− bone marrow progenitor compartment” value in data set [4] is “only modest toxicity”. Further, the “effect on non-malignant CD138− marrow cells” value in data set [4] (human, 48 h, 5 μM) was “leaving the majority of non-malignant CD138− marrow cells intact”. The “final concentration equated from a dose of 25 mg/kg” value in data set [5] (BALB/c (printed as "balc/c"), 25 mg/kg) is given as “about 60 μM”. Also, the “duration of hypoactivity after treatment” value in data set [5] (BALB/c) was 15 to 30 min. The “maximum tolerated single dose (MTDs)” value is reported as ~100 mg/kg in data set [5] (BALB/c, ip) and “about 25 mg/kg” in data set [5] (BALB/c, iv). The “tolerability of multi-dose regimen” value in data set [5] is “well tolerated”. The “effect on My5 tumors” value was “tumor stasis” in data set [6] (4× daily dosing) and “regression of tumors” in data set [6] (5x daily dosing). In data set [6] (setting [9]), the “effect on My5 tumor growth” value was “no effect”. Besides, the “effect on 8226 tumors compared to vehicle-treated mice” value in data set [7] (85 mg/kg 4× daily upfront, p<0.01) is given as “Statistically significant tumor growth inhibition”. Moreover, the “effect on 8226 tumor growth” value in data set [7] (setting [9]) is on record as “no effect”. Besides, in data set [8], the aqueous solubility result was “limited aqueous solubility at high concentration”.

These data come from patent US8822440B2, “Inhibiting cyclin D polypeptides” (Mayo Foundation for Medical Education and Research, priority 2006, dated 2014).
